Data from patent US8026207B2, “Peptides and compositions for inhibiting fungal growth” (Japan Science and Technology Agency, priority 2005, dated 2011).
Ends that are not written are not given here.

Columns and labels:
[1] = test system: C. albicans; assay: Antifungal Test 1: survival of Candida by colony count after incubation with peptide; format: cell-based; details: for concentration showing a lethal ratio of 100%: Candida strain from oral cavity of a patient, 90 min at 37° C., colony count after 48 h
Procedure: The antifungal action against Candida was examined in order to confirm the antifungal effect of the present peptide. The peptide was synthesized by a conventional amino acid synthesis method using a peptide synthesizer manufactured by Shimazu Co. of Japan. The strain of Candida was isolated and provided from oral cavity of a patient in Glasgowden Hospital. The antifungal effect of the present peptide was evaluated using the above Candida strain according to the method of Edgerton et al (1998). Twenty μl of the suspension of C. albicans (1.8×10^5 cfu/mL) was mixed with the same amount of a peptide solution (0.325 μM-25 μM of the peptide concentration) and incubated for 90 min at 37° C. The reaction was stopped by adding Yeast Nitrogen Base medium. The resulting mixture was spread onto Sabouraud dextrose agar plate and incubated for 48 h at 37° C. The number of living strains was determined by colony count and survival percentage (%) was calculated in comparison with the number of colony (100%) obtained using 1 mM phosphate buffer as a control instead of the peptide solution.
The antifungal effect (∘) of the present peptide (JH8194Y) is compared with that of JH8194 (*) , His5:Histatin 5 ([…]:♦)(SEQ ID NO: 6), LFG: Bovine lactoferrin ([…]: ▪)fSEQ ID NO: 7), LFB frag (FKCRRWQWRMKKLG:▴)(SEQ ID NO: 8), and Dhvar 4: Histatin analog developed by Holland ACTA (KRLFKKLLFSLRKY: x)(SEQ ID NO: 9). The ordinate and abscissa axes of FIG. 1 indicate percentage survived of Candida, and the concentration of peptide, respectively.

[2] = test system: human erythrocytes; assay: Toxicity Test 1: hemolytic test using erythrocytes; format: cell-based; details: peptides 0.325-100 μM, FIG. 3
Procedure: A final concentration of the peptides was adjusted in a range of 0.325-100 μM, and the test was done using human erythrocytes in accordance with Nikawa H, Fukushima H, Makihira S, Hamada T, Samaranayake L P. Fungicidal effect of three new synthetic cationic peptides against Candida albicans. Oral Dis. 2004 July; 10(4): 221-8.

[3] = test system: Candida; details: cited from earlier work

Row | Compound | concentration showing a lethal ratio of 100% [1] [µM] | antifungal effect (comparison in words) ([1]; FIG. 1) | concentration eliciting hemolysis [2] [µM] | Minimal Fungicidal Concentration [3] [µM]
1 | DSHEKRHHGYKRKFHEKHHSHRGY (Synthetic peptide Histatin 5) [basic antifungal peptide of the Histatin family existing in saliva] | > 50 |  |  | 
2 | KRLFRRWQWRMKKY | 2.5 | much stronger antifungal effect than lactoferrin and lactoferrin B |  | 
3 | KRLFRRWQWRY | 1.25 |  |  | 
4 | C[C@@H]1[C@H](O)[C@@H](C)/C=C/C=C/C=C/C=C/C=C/C=C/C=C/[C@H](O[C@@H]2O[C@H](C)[C@@H](O)[C@H](N)[C@@H]2O)C[C@@H]2O[C@](O)(C[C@@H](O)C[C@@H](O)[C@H](O)CC[C@@H](O)C[C@@H](O)CC(=O)O[C@H]1C)C[C@H](O)[C@H]2C(=O)O [amphotericin B] |  |  | ≥ 5 | 5
